Measurements published in patent US5674878A, “Anellated dihydropyridines and the use thereof for the production of pharmaceutical preparations” (Boehringer Ingelheim KG, priority 1992, dated 1997).

What follows are compounds tested on unselective cation channels (UCC) (assay: Thapsigargin (0.1 μM) stimulated Ca^2+ entry through unselective cation channels in fura-2-charged RBL-hm 1 cells). Details: Table 13; 10 μM test substance.
Assay type: cell-based, rat
Source text: As a measurement of the cell activation or as a measurement of the inhibition thereof by UCC blockers, the kinetics of the cytoplasmic calcium ion concentration in fura-2-charged cells is quantified fluorometrically using the method described by GRYNKIEWICZ et al. (1985).
Consequently the Ca^2+ -stores are rapidly depleted. As described by J. PUTNEY (Calcium, 11, 611-624, 1990) the depletion of these stores constitutes the physiological stimulation for opening up unselective cation channels in the cell membrane. The result of this is a massive influx of Na^+ and Ca^2+ into the cell. Because of these properties, Thapsigargin is suitable as an indirect stimulator for agonist- and IP3-independent opening up of the unselective cation channels.
The functional endothelin antagonism of the substances according to the invention is mediated through a blockade of the unselective cation channels. Consequently, detection of a functional Thapsigargin-antagonism on RBL-hm1 cells is also a suitable screening method for functional endothelin antagonists.
For screening purposes, fura-2-charged adhesive RBL-hm 1 cells are stimulated with 0.1 μM Thapsigargin in a Ca^2+ -free incubation medium. After 4 minutes, extracellular Ca^2+ is restored to a concentration of 1.5 mM and, using the fura-2-fluorescence, the excessive increase in the cytoplasmic Ca^2+ -concentration caused by a massive transmembranal Ca^2+ -entry through unselective cation channels is recorded.
This entry is to be inhibited solely by unselective cation channel blockers in a dosage-dependent manner. Neither conventional calcium antagonists nor specific blockers of agonists which stimulate the IP3 -turnover are able to inhibit the transmembranal Ca^2+ -entry triggered indirectly by Thapsigargin. The compounds of the present invention are distinguished by their inhibition of UCC.
The fluorometric calcium measurement in the cytoplasm of individual adhering RBL-hm1 cells is carried out analogously to the method described by KUDO and OGURA (1986) for neuronal cells. An AXIOVERT 35 fluorescence microscope made by ZEISS is used in conjunction with an imaging system made by HAMAMATSU, consisting of the ICMS-image processing system, residual light camera with control unit and image intensifier DVS 3000.
The kinetics of the cytoplasmic Ca^2+ -concentration is recorded continuously as a concentration/time curve after the cell activation stimulated by Thapsigargin (0.1 μM). The curves of two activated cell cultures are compared in the presence and absence of 10 μM test substance. The area under these curves (area under the curve=AUC) is integrated and recorded as a measurement of cell activation. The inhibitory potency of the UCC-blockers tested is determined using the following equation: [formula] %H=the percentage inhibition of the calcium entry through unselective cation channels which is stimulated and inhibited by 10 μM of test substance.
AUCinh =area under the curve recorded in the presence of the stimulant plus 10 μM inhibitory test substance.
AUCcontrol =area under the curve which is recorded only after the addition of the stimulant.
The percentage inhibition of UCC after Thapsigargin stimulation (0.1 μM Thapsigargin) in RBL-hm 1 cells is given. The uniform concentration of the test substances is 10^-5 mol).
With `NS(=O)(=O)c1ccc(CCNC(=O)C(=C2NCCc3ccsc32)c2ccccc2)cc1` the “% Inhib.” value was 50.64%.
For `COc1ccc(CCNC(=O)C(C2=NCCc3ccsc32)c2ccccc2)cc1` (centres unmarked), the “% Inhib.” value was 67.73%.
`COc1ccc(CCNC(=O)C(=C2NCCc3ccsc32)c2ccccc2)cc1` was tested, and the “% Inhib.” value was 65.50%.
`CCOc1ccccc1CCNC(=O)C(C1=NCCc2ccsc21)c1ccccc1` (centres unmarked) was tested, and the “% Inhib.” value was 24.03%.
`O=C(NCCc1cccc(C(F)(F)F)c1)C(C1=NCCc2ccsc21)c1ccccc1` (centres unmarked) was tested, and the “% Inhib.” value was 43.49%.
`O=C(NCCc1ccc(Cl)cc1)C(C1=NCCc2ccsc21)c1ccccc1` (centres unmarked) was tested, and the “% Inhib.” value was 15.26%.
For `O=C(NCCc1ccc(Cl)cc1)C(=C1NCCc2ccsc21)c1ccccc1`, the “% Inhib.” value was 26.54%.
`O=C(NCCc1ccsc1)C(C1=NCCc2ccsc21)c1ccccc1` (centres unmarked) was tested, and the “% Inhib.” value was 0.0%.
For `O=C(NCCc1ccsc1)C(=C1NCCc2ccsc21)c1ccccc1`, the “% Inhib.” value was 67.75%.

Same assay, conditions: Table 14; 10 μM test substance
`COc1cc2c(cc1OC)C(C(C(=O)NCCc1ccc(S(N)(=O)=O)cc1)c1ccccc1)=NCC2` (centres unmarked) was tested, and the “% Inhib.” value was 79.17%.
`COc1cc2c(cc1OC)C(C(C(=O)NCCCc1ccccc1)c1ccccc1)=NCC2` (centres unmarked) was tested, and the “% Inhib.” value was 73.55%.
In the case of `COc1cc2c(cc1OC)C(C(C(=O)NCCC1CCCN1C)c1ccccc1)=NCC2` (centres unmarked), the “% Inhib.” value is reported as 60.82%.
`COc1cc2c(cc1OC)C(C(C(=O)NC(C)CCc1ccccc1)c1ccccc1)=NCC2` (centres unmarked) was tested, and the “% Inhib.” value was 82.76%.
`COc1ccc(CNC(=O)C(C2=NCCc3cc(OC)c(OC)cc32)c2ccccc2)cc1OC` (centres unmarked) was tested, and the “% Inhib.” value was 50.90%.
For `COc1ccc(CNC(=O)C(C2=NCCc3cc(OC)c(OC)cc32)c2ccccc2)c(OC)c1` (centres unmarked), the “% Inhib.” value was 56.20%.
For `COc1cc2c(cc1OC)C(C(C(=O)N(CCCc1ccccc1)CCCc1ccccc1)c1ccccc1)=NCC2` (centres unmarked), the “% Inhib.” value was 22.39%.
With `COc1cc2c(cc1OC)C(C(C(=O)NCCc1ccc(C)cc1)c1ccccc1)=NCC2` (centres unmarked) the “% Inhib.” value was 79.60%.
`COc1cc2c(cc1OC)C(C(C(=O)NCCc1ccc(Cl)c(OCc3ccccc3)c1)c1ccccc1)=NCC2` (centres unmarked) was tested, and the “% Inhib.” value was 36.71%.
In the case of `COc1cc2c(cc1OC)C(C(C(=O)NCC1CCCCC1)c1ccccc1)=NCC2` (centres unmarked), the “% Inhib.” value is reported as 30.87%.

Same assay, conditions: Table 15; 10 μM test substance
`COc1cc2c(cc1OC)C(C(C(=O)NCCCc1ccc(C(C)(C)C)cc1)C1CCCCC1)=NCC2` (centres unmarked) was tested, and the “% Inhib.” value was 84.43%.

Same assay, conditions: Table 16; %inhibition, 10 μM test substance
For `COc1ccc2c(c1)CCN=C2C(C(=O)NCCc1cccc(C(F)(F)F)c1)c1ccccc1` (centres unmarked), the “%” value was 30.41%.
With `O=C(NCCc1cccc(C(F)(F)F)c1)C(C1=NCCc2cc(OCc3ccccc3)ccc21)c1ccccc1` (centres unmarked) the “%” value was 14.65%.
With `Cc1cc2c(cc1OCc1ccccc1)CCN=C2C(C(=O)NCCc1cccc(C(F)(F)F)c1)c1ccccc1` (centres unmarked) the “%” value was 49.03%.
With `COc1cc2c(cc1OCc1ccccc1)CCN=C2C(C(=O)NCCc1cccc(C(F)(F)F)c1)c1ccccc1` (centres unmarked) the “%” value was 31.8%.
`COc1cc2c(cc1OCc1ccccc1)C(C(C(=O)NCCc1cccc(C(F)(F)F)c1)c1ccccc1)=NCC2` (centres unmarked) was tested, and the “%” value was 22.9%.
With `COc1cc2c(cc1C)C(C(C(=O)N(Cc1ccccc1)Cc1ccccc1)c1ccccc1)=NCC2` (centres unmarked) the “%” value was 58.3%.

Same assay, conditions: Table 17; 10 μM test substance
`COc1cc(N=[N+]=[N-])c(I)cc1CCNC(=O)C(C1=NCCc2cc(OC)c(OC)cc21)c1ccccc1` (centres unmarked) was tested, and the “percent inhibition of Ca2+ entry” value was 36.95%.
In the case of `COc1ccccc1CCNC(=O)C(C1=NCCc2cc(OC)c(OC)cc21)c1ccccc1` (centres unmarked), the “percent inhibition of Ca2+ entry” value is reported as 69.7%.
`COc1ccc(CCN(CC(C)C)C(=O)C(C2=NCCc3cc(OC)c(OC)cc32)c2ccccc2)cc1OC` (centres unmarked) was tested, and the “percent inhibition of Ca2+ entry” value was 12.82%.
`COc1cc2c(cc1OC)C(C(C(=O)NCCOc1cccc3ccccc13)c1ccccc1)=NCC2` (centres unmarked) was tested, and the “percent inhibition of Ca2+ entry” value was 59%.
`COc1cc2c(cc1OC)C(C(C(=O)NC(C)COc1c(C)cccc1C)c1ccccc1)=NCC2` (centres unmarked) was tested, and the “percent inhibition of Ca2+ entry” value was 72.18%.

Same assay, conditions: Table 20; 10 μM test substance
With `Cc1cc2c(cc1OCc1ccccc1)CCN=C2C(C(=O)NCCc1cccc(C(F)(F)F)c1)c1ccccc1` (centres unmarked) the “percent inhibition of Ca2+ entry” value was 49.03%.
